Legend:
[1] = early clinical studies, Simoons et al., Circulation 90, I-231 (1994); cited from earlier work
human plasma [2] = assay: Human plasma anticoagulation, prothrombin time (PT); format: biochemical; details: concentration required to double PT, linear extrapolation
How it was run: (§1)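 Compounds added across a wide concentration range to plasma; PT measured with Thromboplastin-C, APTT after 120 s Actin incubation then 0.02 M CaCl2, TT with bovine thrombin (10 NIH units/mL). Clotting-time doubling concentrations estimated by linear extrapolation.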

factor Xa = factor Xa (Homo sapiens, UniProt P00742); assay: Kass against factor Xa, chromogenic substrate; format: biochemical; details: substrate N-Benzoyl-Ile-Glu-Gly-Arg-p-nitroanilide
Description: By substantially following the procedures described above for human thrombin, and using other human blood coagulation system serine proteases and proteases of the fibrinolytic system with the appropriate chromogenic substrates, identified below, selectivity of the compounds of the present invention with respect to the coagulation factor serine proteases and with respect to the fibrinolytic system serine proteases are evaluated as well as their substantial lack of interference with serine proteases of the fibrinolytic system.
Human factors X, Xa, IXa, XIa, and XIIa are purchased from Enzyme Research Laboratories, South Bend, Ind.; human urokinase from Leo Pharmaceuticals, Denmark; and recombinant activated Protein C (aPC) is prepared at Eli Lilly and Co. substantially according to U.S. Pat. No. 4,981,952. Chromogenic substrates: N-Benzoyl-Ile-Glu-Gly-Arg-p-nitroanilide (for factor Xa); N-Cbz-D-Arg-Gly-Arg-p-nitroanilide (for factor IXa assay as the factor Xa substrate); Pyroglutamyl-Pro-Arg-p-nitroanilide (for Factor XIa and for aPC); H-D-Pro-Phe-Arg-p-nitroanilide (for factor XIIa); and Pyroglutamyl-Gly-Arg-p-nitroanilide (for urokinase); are purchased from KabiVitrum, Stockholm, Sweden, or from Midwest Biotech, Fishers, Ind.. Bovine trypsin is purchased from Worthington Biochemicals, Freehold, N.J., and human plasma kallikrein from Kabi Vitrum, Stockholm, Sweden. […]

human plasma [3] = assay: Human plasma anticoagulation, activated partial thromboplastin time (APTT); format: biochemical; details: concentration required to double APTT, linear extrapolation
How it was run: as §1

Human Thrombin = Human Thrombin (Homo sapiens, UniProt P00734); assay: Inhibition of thrombin amidase activity (Kass), chromogenic substrate; format: biochemical; details: mean Kass over a range of concentrations; substrate N-benzoyl-Phe-Val-Arg-p-nitroanilide
human plasma [4] = assay: Human plasma anticoagulation, thrombin time (TT); format: biochemical; details: concentration required to double thrombin time, linear extrapolation
How it was run: as §1

Chain of factor Xa (P00742 235-488 limits assumed): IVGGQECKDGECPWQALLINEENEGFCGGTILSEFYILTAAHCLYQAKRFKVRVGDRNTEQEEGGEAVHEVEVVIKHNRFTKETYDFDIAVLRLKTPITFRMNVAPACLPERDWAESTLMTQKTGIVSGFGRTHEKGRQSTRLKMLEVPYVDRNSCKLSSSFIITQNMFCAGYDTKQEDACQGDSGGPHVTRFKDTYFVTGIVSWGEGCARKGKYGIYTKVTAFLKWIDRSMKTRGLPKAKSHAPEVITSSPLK
Chain of factor Xa (P00742 41-179 partner limits assumed): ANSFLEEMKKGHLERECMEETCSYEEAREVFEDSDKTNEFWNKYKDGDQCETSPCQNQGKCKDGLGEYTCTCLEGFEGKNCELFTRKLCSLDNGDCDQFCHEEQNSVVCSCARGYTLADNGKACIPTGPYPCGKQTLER

Q: For `CN[C@H](Cc1ccccc1)C(=O)N1CCC[C@H]1C(=O)N[C@H](C=O)CCCNC(=N)N.O=S(=O)(O)O` [D-MePhe-Pro-Arg-H sulfate], which anticoagulant in man [1] is on record?
A: Its anticoagulant in man is “is an anticoagulant in man”.

Q: With `CCS(=O)(=O)N[C@H](Cc1ccccc1)C(=O)N1CCC[C@H]1C(=O)NCCc1cccc(N=C(N)N)c1.Cl` [Example 37, EtSO2 -D-Phe-Pro-m-NHCH2 CH2 C6 H4 NHC(NH)NH2.HCl] as the molecule, how does the “Human Plasma Anticoagulation 2x Clotting time PT” value (human plasma [2]) read?
A: The value was > 9,000 ng/mL.

Q: What about the “Kass Xa” value (factor Xa) of the same molecule?
A: Its value is < 0.009 × 10^6 (L/mole).

Q: What about the “Human Plasma Anticoagulation 2x Clotting time APTT” value (human plasma [3]) of the same molecule?
A: The value was > 9,000 ng/mL.

Q: And the “Kass Human Thrombin” value (Human Thrombin)?
A: Its value is 0.02 × 10^6 (L/mole).

Q: What about the “Human Plasma Anticoagulation 2x Clotting time TT” value (human plasma [4]) of the same molecule?
A: The value was > 9,000 ng/mL.

Reference: patent publication US5710130A, “Antithrombotic agents” (Eli Lilly and Company, priority 1995, dated 1998)
